Measured values reported in patent US8642807B2, “Crystallized diacetylenic indicator compounds and methods of preparing the compounds” (Temptime Corporation, priority 2007, dated 2014).

Experiments:
Assay type in all cases: physicochemical
[1] = Solubility in 1,1,3,3-tetramethyl urea at 90° C. in a closed vial; conditions: tetramethyl urea (TMU)
Protocol: 1,1,3,3tetramethyl urea, also called “tetramethyl urea” and sometimes referenced “TMU” can dissolve up to 7% weight 2,4-hexadiyn-1,6-bis(ethylurea) at a temperature of 90° C. in a closed vial.

[2] = Room temperature solubilities in various solvent systems (Table 3); conditions: for Solubility: 20° C., material recrystallized from acetic acid
Excerpt: As is the case elsewhere herein, the acetone/water and ethanol/water solvent mixtures are given in weight-for-weight proportions in Table 3 and FIG. 10. It can be seen from Table 3 and FIG. 10 that some of the solvent systems displaying elevated solubility at higher temperatures, for example acetic acid and the several aqueous mixtures, have only limited solubility at room temperature.

[3] = Solubility test: ability of each solvent to dissolve at least 1 percent by weight at a process temperature near its boiling point (Example 1)
Excerpt: This example illustrates solvent mapping, testing and solubility region definition for a diacetylenic monomer for which new solvents and solubility information are desired, namely 2,4-hexadiyn-1,6-bis(ethylurea) and for which reliable solubility parameter information is not available. In this example, solubility points are mapped for each of a number of representative samples of a wide range of solvents of different chemical types and physicochemical characteristics, according to their solubility parameters. The solubility points of the representative solvents (filled squares) are mapped on a plot of hydrogen bonding (δH), on the Y-axis, versus polar parameters (δP), on the X-axis, generating a map such as that shown in FIG. 4. Also shown in FIG. 4 are solubility points for solvent systems comprising 25 percent by weight water/solvent mixtures (unfilled squares).
Each solvent is tested for its ability to dissolve at least 1 percent by weight 2,4-hexadiyn-1,6-bis(ethylurea) at a temperature not more than 5° C. above the boiling point of the solvent. Because the boiling points of the solvents tested vary widely, ranging from 56° C. to 189° C. the solvents are processed in batches at temperatures of 60, 75, 82, and 90° C., respectively. The process temperature desirably is not greater than 4 to 5° C. above a given solvent's boiling point.
Some exemplary solubility data obtainable for 2,4-hexadiyn-1,6-bis(ethylurea) from the above-described solubility test with the solvents indicated, are set forth in Table 1 below along with solubility parameter information for the solvents. Also included in Table 1 are data regarding the 25 percent by weight water/solvent mixtures.

[4] = Further solubility tests at 1, 4, 7 and 10 percent by weight, 90° C. water bath (Example 2)
Protocol: A 90° C. water bath is employed to maintain the solvent or solution temperature and results obtainable are tabulated in Table 2 below, solubility parameter information again being included to facilitate understanding of the data for acetone and water, for reference.

[5] = solvent 1-Propanol, 90° C. water bath
[6] = solvent 2-Propanol (IPA), 90° C. water bath
[7] = solvent 25% Water/Acetone, 90° C. water bath
[8] = solvent 25% Water/DMF, 90° C. water bath
[9] = solvent 25% Water/DMSO, 90° C. water bath
[10] = solvent 25% Water/Ethanol, 90° C. water bath
[11] = solvent 25% Water/IPA, 90° C. water bath
[12] = solvent 25% water/acetic acid, 90° C. water bath
[13] = solvent 25% water/formic acid, 90° C. water bath
[14] = solvent Acetic acid, 90° C. water bath
[15] = solvent Acetone, 90° C. water bath
[16] = solvent DMSO, 90° C. water bath
[17] = solvent Ethanol, 90° C. water bath
[18] = solvent Ethylene Glycol, 90° C. water bath
[19] = solvent Formic acid, 90° C. water bath
[20] = solvent Methanol, 90° C. water bath
[21] = solvent Pyridine, 90° C. water bath
[22] = solvent Water, 90° C. water bath

CCNC(=O)NCC#CC#CCNC(=O)NCC [KE, 2,4-hexadiyn-1,6-bis(ethylurea)]
amount dissolved by 1,1,3,3-tetramethyl urea [1]: up to 7 % weight | Solubility ([2]; Acetic acid): 0.6 wt. % of the Solution | Solubility ([2]; Acetone/water 4:1 (weight for weight)): 0.16 wt. % of the Solution | Solubility ([2]; DMF): 4 wt. % of the Solution | Solubility ([2]; DMSO): 4 wt. % of the Solution | Solubility ([2]; Dichloroacetic acid): 33 wt. % of the Solution | Solubility ([2]; Ethanol/water 4:1 (weight for weight)): 0.18 wt. % of the Solution | Solubility ([2]; Ethyl alcohol): 0.17 wt. % of the Solution | Solubility ([2]; Formic acid): 23 wt. % of the Solution | Solubility ([2]; Isopropyl alcohol): 0.09 wt. % of the Solution | Solubility ([2]; Methyl alcohol “MeOH”): 0.27 wt. % of the Solution | Solubility ([2]; Tetramethyl urea): 0.90 wt. % of the Solution | Solubility ([2]; Trifluoroaceticacetic acid): 30 wt. % of the Solution | amount solvated by formic acid ([2]; formic acid, room temperature): ~13 % by weight | amount dissolved ([3]; N,N-dimethyl formamide (DMF)): at least 1 percent by weight | amount dissolved ([3]; acetic acid): at least 1 percent by weight | amount dissolved ([3]; dimethyl sulfoxide (DMSO)): at least 1 percent by weight | amount dissolved ([3]; ethanol (EtOH)): at least 1 percent by weight | amount dissolved ([3]; ethylene glycol): at least 1 percent by weight | amount solvated by pyridine ([3]; pyridine): about 1 % by weight | KE soluble at 1% wt? ([3]; solvent Acrylonitrile, process T 75 °C): No | KE soluble at 1% wt? ([3]; solvent Benzene, process T 75 °C): No | KE soluble at 1% wt? ([3]; solvent Ethanol, process T 75 °C): Yes | KE soluble at 1% wt? ([3]; solvent Ethyl acetate, process T 75 °C): No | KE soluble at 1% wt? ([3]; solvent THF, process T 60 °C): No | KE soluble at 1% wt? ([3]; solvent n-Hexane, process T 75 °C): No | amount dissolved ([3]; the water/solvent mixtures (25 percent by weight water), all): at least 1 percent by weight | Solubility ([4]; 25% water/ethanol mixture (1 part water, 3 parts ethanol by weight)): at least 4 percent by weight | Solubility ([4]; dimethyl sulfoxide, 90° C. water bath): > 10% | Solubility ([4]; formic acid, 90° C. water bath): > 10% | Solubility ([4]; pure ethanol): less than 4 percent by weight | Is KE soluble at 1%? [4, 5]: Yes | Is KE soluble at 4%? [4, 5]: No | Is KE soluble at 7%? [4, 5]: No | Is KE soluble at 10%? [4, 5]: No | Is KE soluble at 1%? [4, 6]: Yes | Is KE soluble at 4%? [4, 6]: No | Is KE soluble at 7%? [4, 6]: No | Is KE soluble at 10%? [4, 6]: No | Is KE soluble at 1%? [4, 7]: Yes | Is KE soluble at 4%? [4, 7]: Yes | Is KE soluble at 7%? [4, 7]: No | Is KE soluble at 10%? [4, 7]: No | Is KE soluble at 1%? [4, 8]: Yes | Is KE soluble at 4%? [4, 8]: Yes | Is KE soluble at 7%? [4, 8]: Yes | Is KE soluble at 10%? [4, 8]: No | Is KE soluble at 1%? [4, 9]: Yes | Is KE soluble at 4%? [4, 9]: Yes | Is KE soluble at 7%? [4, 9]: No | Is KE soluble at 10%? [4, 9]: No | Is KE soluble at 1%? [4, 10]: Yes | Is KE soluble at 4%? [4, 10]: Yes | Is KE soluble at 7%? [4, 10]: No | Is KE soluble at 10%? [4, 10]: No | Is KE soluble at 1%? [4, 11]: Yes | Is KE soluble at 4%? [4, 11]: No | Is KE soluble at 7%? [4, 11]: No | Is KE soluble at 10%? [4, 11]: No | Is KE soluble at 1%? [4, 12]: Yes | Is KE soluble at 4%? [4, 12]: Yes | Is KE soluble at 7%? [4, 12]: Yes | Is KE soluble at 10%? [4, 12]: No | Is KE soluble at 1%? [4, 13]: Yes | Is KE soluble at 4%? [4, 13]: Yes | Is KE soluble at 7%? [4, 13]: Yes | Is KE soluble at 10%? [4, 13]: No | Is KE soluble at 1%? [4, 14]: Yes | Is KE soluble at 4%? [4, 14]: Yes | Is KE soluble at 7%? [4, 14]: Yes | Is KE soluble at 10%? [4, 14]: Yes | Is KE soluble at 1%? [4, 15]: No | Is KE soluble at 4%? [4, 15]: No | Is KE soluble at 7%? [4, 15]: No | Is KE soluble at 10%? [4, 15]: No | Is KE soluble at 1%? ([4]; solvent DMF, 90° C. water bath): Yes | Is KE soluble at 4%? ([4]; solvent DMF, 90° C. water bath): Yes | Is KE soluble at 7%? ([4]; solvent DMF, 90° C. water bath): Yes | Is KE soluble at 10%? ([4]; solvent DMF, 90° C. water bath): Yes | Is KE soluble at 1%? [4, 16]: Yes | Is KE soluble at 4%? [4, 16]: Yes | Is KE soluble at 7%? [4, 16]: Yes | Is KE soluble at 10%? [4, 16]: Yes | Is KE soluble at 1%? [4, 17]: Yes | Is KE soluble at 4%? [4, 17]: No | Is KE soluble at 7%? [4, 17]: No | Is KE soluble at 10%? [4, 17]: No | Is KE soluble at 1%? [4, 18]: Yes | Is KE soluble at 4%? [4, 18]: No | Is KE soluble at 7%? [4, 18]: No | Is KE soluble at 10%? [4, 18]: No | Is KE soluble at 1%? [4, 19]: Yes | Is KE soluble at 4%? [4, 19]: Yes | Is KE soluble at 7%? [4, 19]: Yes | Is KE soluble at 10%? [4, 19]: Yes | Is KE soluble at 1%? [4, 20]: Yes | Is KE soluble at 4%? [4, 20]: Yes | Is KE soluble at 7%? [4, 20]: No | Is KE soluble at 10%? [4, 20]: No | Is KE soluble at 1%? [4, 21]: Yes | Is KE soluble at 4%? [4, 21]: No | Is KE soluble at 7%? [4, 21]: No | Is KE soluble at 10%? [4, 21]: No | Is KE soluble at 1%? [4, 22]: No | Is KE soluble at 4%? [4, 22]: No | Is KE soluble at 7%? [4, 22]: No | Is KE soluble at 10%? [4, 22]: No | solubility in water ([4]; water): insoluble | Solubility ([4]; water and acetone combined (25% Water/Acetone)): at least 4 percent by weight
